The values below are quoted from earlier work in patent publication US20100137442A2, “Sustained Release Particulate Oral Dosage Forms of (R)-Baclofen and Methods of Treatment” (XenoPort, Inc., priority 2008, published 2010).

For data set [1] the following is noted: animal models.
For data set [2] the following is noted: oral baclofen.
For data set [3] the following is noted: oral; 2 mg t.i.d equivalent to racemic baclofen 10 mg t.i.d.
The conditions of data set [4]: dosed either orally or directly into the colon of a mammal.

For the compound `NCC(CC(=O)O)c1ccc(Cl)cc1` (racemic) [Baclofen, (±)-4-Amino-3-(4-chlorophenyl)butanoic acid], the “absorption following administration into the colon” value in data set [1] is “poorly absorbed”. In addition, in data set [2], the elimination half-life is 3 to 4 h.
Take `NC[C@H](CC(=O)O)c1ccc(Cl)cc1` [(R)-baclofen, R-(−)-baclofen]: the “potency relative to orally administered racemic baclofen” value in data set [3] is listed as “about 5 fold”.
Consider `CC(C)C(=O)O[C@@H](OC(=O)NC[C@H](CC(=O)O)c1ccc(Cl)cc1)C(C)C` [Compound (4), (3R)-4-{[(1S)-2-methyl-1-(2-methylpropanoyloxy)propoxy]carbonylamino}-3-(4-chlorophenyl)butanoic acid], for which the “bioavailability as (R)-baclofen” value in data set [4] is reported as “high bioavailability”.
